# Measurements reported in patent US20100298252A1, “METHODS AND COMPOSITIONS FOR OPHTHALMIC TREATMENT OF FUNGAL AND BACTERIAL INFECTIONS” (priority 2004, published 2010).
# Assays:
# [1] = system: Penicillium sp.; experiment: Antifungal MIC 50 / MIC 90 alone and combined with Tricide; format: cell-based
# [2] = system: Fusarium sp. 2; experiment: microbe, parasite or virus in culture; format: cell-based
# [3] = system: Cladosporium sp.; experiment: Antifungal MIC 50 / MIC 90 alone and combined with Tricide; format: cell-based
# [4] = system: Curvularia sp.; experiment: as above; format: cell-based;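 further: antifungal MIC 50 and MIC 90 values against fungal isolates, with percent figures expressing how much the MIC fell once Tricide was added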
# [5] = system: Fusarium sp. 1; experiment: microbe, parasite or virus in culture; format: cell-based;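 further: mean MIC 50 and MIC 90 values against fungal isolates, with percent decrease in MIC when the antifungal is combined with Tricide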
# [6] = system: Paecilomyces variotti ATCC 36257; experiment: Antifungal MIC 50 / MIC 90 alone and combined with Tricide; format: cell-based
# [7] = system: Aspergillus sp.; experiment: as above; format: cell-based
# [8] = system: Fusarium sp. 3; experiment: microbe, parasite or virus in culture; format: cell-based
# [9] = system: Candidia albicans ATCC 90028; experiment: Antifungal MIC 50 / MIC 90 alone and combined with Tricide; format: cell-based, Candida albicans;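 further: MIC 50 and MIC 90 values are means, and the percent decrease is the drop in MIC when the antifungal is combined with Tricide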
# [10] = Curvilaria sp., Tricide 200 ug/ml
# [11] = Curvularia sp., antifungal alone
# [12] = Fusarium sp. 1, Tricide 540 ug/ml
# [13] = Fusarium sp. 1, antifungal alone
# [14] = Paecilomyces variotti ATCC36257
# [15] = Paecilomyces variotti, Tricide […]
# [16] = Aspergillus sp., Tricide 200 ug/ml
# [17] = Aspergillus, Aspergiullus sp., antifungal alone
# [18] = Candida albicans, ATCC90028, Candidia albicans ATCC 90028, antifungal alone
smiles,measurement,setting,value
"CCC(C)n1ncn(-c2ccc(N3CCN(c4ccc(OCC5COC(Cn6cncn6)(c6ccc(Cl)cc6Cl)O5)cc4)CC3)cc2)c1=O (centres unmarked) [Itraconazole, itraconazole]",Summary % reduction in MIC 50 using Tricide,[1],100%
same,Summary % reduction in MIC 90 using Tricide,[1],100%
same,% decrease MIC 50,[1]; Tricide 200 ug/ml,100%
same,% decrease MIC 90,[1]; Tricide 200 ug/ml,100%
same,MIC 50 combined with Tricide,[1]; Tricide 200 ug/ml,0 µg/mL
same,MIC 90 combined with Tricide,[1]; Tricide 200 ug/ml,0 µg/mL
same,MIC50,[1]; antifungal alone,0.5 µg/mL
same,MIC90,[1]; antifungal alone,0.722 µg/mL
same,Summary % reduction in MIC 50 using Tricide,[2],>99.9%-100%
same,Summary % reduction in MIC 90 using Tricide,[2],>99.9%-100%
same,% decrease MIC 50,[2]; Tricide 540 ug/ml,>99.9-100% ^
same,% decrease MIC 90,[2]; Tricide 540 ug/ml,>99.9-100% ^
same,MIC50,[2]; antifungal alone,> 128 µg/mL
same,MIC90,[2]; antifungal alone,> 128 µg/mL
same,Summary % reduction in MIC 50 using Tricide,[3],93.8%
same,Summary % reduction in MIC 90 using Tricide,[3],96.9%
same,% decrease MIC 50,[3]; Tricide 200 ug/ml,>93.8% ^
same,% decrease MIC 90,[3]; Tricide 200 ug/ml,96.9%
same,MIC 50 combined with Tricide,[3]; Tricide 200 ug/ml,<0.25 µg/mL
same,MIC 90 combined with Tricide,[3]; Tricide 200 ug/ml,0.5 µg/mL
same,MIC50,[3]; antifungal alone,4 µg/mL
same,MIC90,[3]; antifungal alone,16 µg/mL
same,% decrease MIC 50,[4]; [10],97-100% ^
same,% decrease MIC 90,[4]; [10],80-100% ^
same,MIC 50 combined with Tricide,[4]; [10],0 to 0.0250 µg/mL
same,MIC 90 combined with Tricide,[4]; [10],0 to 0.4 µg/mL
same,Summary % reduction in MIC 50 using Tricide,[4]; Curvularia sp.,97%-100%
same,Summary % reduction in MIC 90 using Tricide,[4]; Curvularia sp.,80%-100%
same,MIC50,[4]; [11],0.778 µg/mL
same,MIC90,[4]; [11],2 µg/mL
same,Summary % reduction in MIC 50 using Tricide,[5]; Fasarium sp. 1,>99.9%-100%
same,Summary % reduction in MIC 90 using Tricide,[5]; Fasarium sp. 1,99.9%-100%
same,% decrease MIC 50,[5]; [12],>99.9-100% ^
same,% decrease MIC 90,[5]; [12],99.9-100%^
same,MIC 90 combined with Tricide,[5]; [12],0 to 0.05 µg/mL
same,MIC50,[5]; [13],> 128 µg/mL
same,MIC90,[5]; [13],> 128 µg/mL
same,MIC50,"[6]; ATCC36257, Paecilomyces variotti ATCC 36257, antifungal alone, read-out: MIC 50",0.0764 µg/mL
same,MIC90,"[6]; ATCC36257, Paecilomyces variotti ATCC 36257, antifungal alone, read-out: MIC 90",0.5 µg/mL
same,Summary % reduction in MIC 50 using Tricide,[6]; [14],95%
same,Summary % reduction in MIC 90 using Tricide,[6]; [14],50%
same,% decrease MIC 50,[6]; [15],95%
same,% decrease MIC 90,[6]; [15],50%
same,MIC 50 combined with Tricide,[6]; [15],0.0039 µg/mL
same,MIC 90 combined with Tricide,[6]; [15],0.25 µg/mL
same,% decrease MIC 50,[7]; [16],84%
same,% decrease MIC 90,[7]; [16],90%
same,MIC 50 combined with Tricide,[7]; [16],0.1250 µg/mL
same,MIC 90 combined with Tricide,[7]; [16],0.25 µg/mL
same,MIC50,[7]; [17],0.786 µg/mL
same,MIC90,[7]; [17],2.43 µg/mL
same,Summary % reduction in MIC 50 using Tricide,[7]; Aspergiullus sp.,84%
same,Summary % reduction in MIC 90 using Tricide,[7]; Aspergiullus sp.,90%
same,Summary % reduction in MIC 50 using Tricide,[8],100%
same,Summary % reduction in MIC 90 using Tricide,[8],100%
same,% decrease MIC 50,[8]; Tricide 540 ug/ml,100%
same,% decrease MIC 90,[8]; Tricide 540 ug/ml,100%
same,MIC 50 combined with Tricide,[8]; Tricide 540 ug/ml,0 µg/mL
same,MIC 90 combined with Tricide,[8]; Tricide 540 ug/ml,0 µg/mL
same,MIC50,[8]; antifungal alone,> 128 µg/mL
same,MIC90,[8]; antifungal alone,> 128 µg/mL
same,MIC50,[9]; [18],0.201 µg/mL
same,MIC90,[9]; [18],> 1 µg/mL
same,% decrease MIC 50,"[9]; Candida albicans, Tricide […]",100%
same,% decrease MIC 90,"[9]; Candida albicans, Tricide […]",100%
same,MIC 50 combined with Tricide,"[9]; Candida albicans, Tricide […]",0 µg/mL
same,Summary % reduction in MIC 50 using Tricide,[9]; Candidia albicans ATCC 90028,100%
same,Summary % reduction in MIC 90 using Tricide,[9]; Candidia albicans ATCC 90028,100%
